# pIC50: −log10 of the molar value.
# Target: T1, human Nav1.8 (hNav1.8) ion channel (Homo sapiens, UniProt Q9Y5Y9)
# T1 construct: expressed in transfected cells; host or cells: HEK293
# Assay: Nav1.8 channel inhibition, estimated IC50 (one or more of: fluorescence inhibition assay, PatchXpress, IonFlux HT automated patch clamp)
# Type: cell-based
# Conditions: HEK293 cells stably expressing hNav1.8; method used per compound not stated; read-out: Activity range (estimated IC50)
# Description: The ability of pyridine carboxamide derivatives exemplified above to inhibit the Nav1.8 channel was determined using one or more of the methods described below.
# HEK Nav1.8 β1/β2 Stably Expressing Cell Line
# A HEK293 cell line stably expressing the human Nav1.8 (hNav1.8) ion channel with β1/β2 subunits was constructed. The cell line is suitable for IC50 determination in fluorescence and electrophysiological based assays. It is also suitable to form mechanism of action pharmacology studies in electrophysiological assays. HEK293 Nav 1.8 cells are grown as adherent monolayers in DMEM/high glucose media, 10% fetal bovine serum, Na pyruvate (2 mM), Hepes (10 mM) with selection agents G418 (400 mg/L) and puromycin (0.5 mg/L) at 37 degrees C., 10% CO2.
# Nav 1.8 Fluorescence Inhibition Assay
# Compounds were made up to or supplied as a 10-mM stock solution using DMSO as the vehicle. Concentration-response curves were generated using a Matrix multichannel pipettor. Compound source plates were made by diluting 10 mM compound stocks to create 500 μM (100×) solutions in DMSO in 96-well v-bottom plates. Compounds were then serially diluted in 100% DMSO to generate a 5 point, 4-fold dilution scheme dose response curve. 2 μL of the 100× dose response curves was then added to preincubation and stimulation assay plates. 100 μL of pre-incubation buffer and 200 μL of stimulation buffer were then added to the plates resulting in a final assay test concentration range of 5 μM to 0.02 μM with a final DMSO concentration of 1%.
# On the day of assay, plates were washed to remove cell culture media using 2K EBSS buffer (135 mM NaCl, 2 mM KCl, 5 mM Glucose, 2 mM CaCl2), 1 mM MgCl2, 10 mM HEPES, pH 7.4). The Na-sensitive fluorescent dye, Asante Natrium Green-2 (ANG-2) is incubated for 60 min to allow equilibration and then washed with 2K EBSS. Plates are the transferred to a fluorescence plate reader (FLIPR™, Molecular Devices) for fluorescence measurement using an excitation wavelength of 490 nm and an emission wavelength of 565 nm. Compounds are pre-incubated at for 5 min at final test concentration in the presence of ouabain (30 μM) to inhibit Na+ efflux through Na+/K+ exchanger. Following the pre-incubation phase, hNav1.8 channels are stimulated with 10 μM of the pyrethroid deltamethrin to prevent channel inactivation. The assay was run for 15 min with vehicle and 30 μM tetracaine serving as negative and positive controls, respectively. The peak change in fluorescence relative to negative and positive control wells was calculated and fit with a logistic equation to determine IC50.
# PatchXpress Nav 1.8 Inhibition Assay
# HEK-Nav1.8 β1/β2 cells were recorded in whole cell patch-clamp using the PatchXpress automated patch clamp platforms (Molecular Devices). Cells suspensions were obtained by trypsinization of adherent monolayers, followed by gentle rocking for minimally 30 min. Compounds were prepared from 10 mM DMSO stocks.
# Nav1.8 channel variants were evaluated using Protocol 1 (FIG. 2) in which cells were initially voltage clamped at a holding potential of −100 mV to maintain Nav1.8 in a closed resting state. After current amplitude becomes stable, the mid-point voltage of steady state inactivation was determined for each cell using a series of 5 sec conditioning steps to increasingly depolarized voltages (−100 to 0 mV) The holding potential was then reset to a voltage that produces ˜50% inactivation (Vhalf−set automatically via PatchXpress scripts) so that closed and inactivated channel inhibition can be assessed. Protocol 1 was run at a frequency of 0.1 Hz until current amplitude is steady (automatically determined by PatchXpress scripts). The effect of test reagent on Nav current amplitude was monitored using custom PatchXpress stability scripts which determines the timing of compound addition and washout. Data were processed and analyzed using DataXpress 2.0 (Molecular Devices). […]
# T1 sequence (Q9Y5Y9 whole entry): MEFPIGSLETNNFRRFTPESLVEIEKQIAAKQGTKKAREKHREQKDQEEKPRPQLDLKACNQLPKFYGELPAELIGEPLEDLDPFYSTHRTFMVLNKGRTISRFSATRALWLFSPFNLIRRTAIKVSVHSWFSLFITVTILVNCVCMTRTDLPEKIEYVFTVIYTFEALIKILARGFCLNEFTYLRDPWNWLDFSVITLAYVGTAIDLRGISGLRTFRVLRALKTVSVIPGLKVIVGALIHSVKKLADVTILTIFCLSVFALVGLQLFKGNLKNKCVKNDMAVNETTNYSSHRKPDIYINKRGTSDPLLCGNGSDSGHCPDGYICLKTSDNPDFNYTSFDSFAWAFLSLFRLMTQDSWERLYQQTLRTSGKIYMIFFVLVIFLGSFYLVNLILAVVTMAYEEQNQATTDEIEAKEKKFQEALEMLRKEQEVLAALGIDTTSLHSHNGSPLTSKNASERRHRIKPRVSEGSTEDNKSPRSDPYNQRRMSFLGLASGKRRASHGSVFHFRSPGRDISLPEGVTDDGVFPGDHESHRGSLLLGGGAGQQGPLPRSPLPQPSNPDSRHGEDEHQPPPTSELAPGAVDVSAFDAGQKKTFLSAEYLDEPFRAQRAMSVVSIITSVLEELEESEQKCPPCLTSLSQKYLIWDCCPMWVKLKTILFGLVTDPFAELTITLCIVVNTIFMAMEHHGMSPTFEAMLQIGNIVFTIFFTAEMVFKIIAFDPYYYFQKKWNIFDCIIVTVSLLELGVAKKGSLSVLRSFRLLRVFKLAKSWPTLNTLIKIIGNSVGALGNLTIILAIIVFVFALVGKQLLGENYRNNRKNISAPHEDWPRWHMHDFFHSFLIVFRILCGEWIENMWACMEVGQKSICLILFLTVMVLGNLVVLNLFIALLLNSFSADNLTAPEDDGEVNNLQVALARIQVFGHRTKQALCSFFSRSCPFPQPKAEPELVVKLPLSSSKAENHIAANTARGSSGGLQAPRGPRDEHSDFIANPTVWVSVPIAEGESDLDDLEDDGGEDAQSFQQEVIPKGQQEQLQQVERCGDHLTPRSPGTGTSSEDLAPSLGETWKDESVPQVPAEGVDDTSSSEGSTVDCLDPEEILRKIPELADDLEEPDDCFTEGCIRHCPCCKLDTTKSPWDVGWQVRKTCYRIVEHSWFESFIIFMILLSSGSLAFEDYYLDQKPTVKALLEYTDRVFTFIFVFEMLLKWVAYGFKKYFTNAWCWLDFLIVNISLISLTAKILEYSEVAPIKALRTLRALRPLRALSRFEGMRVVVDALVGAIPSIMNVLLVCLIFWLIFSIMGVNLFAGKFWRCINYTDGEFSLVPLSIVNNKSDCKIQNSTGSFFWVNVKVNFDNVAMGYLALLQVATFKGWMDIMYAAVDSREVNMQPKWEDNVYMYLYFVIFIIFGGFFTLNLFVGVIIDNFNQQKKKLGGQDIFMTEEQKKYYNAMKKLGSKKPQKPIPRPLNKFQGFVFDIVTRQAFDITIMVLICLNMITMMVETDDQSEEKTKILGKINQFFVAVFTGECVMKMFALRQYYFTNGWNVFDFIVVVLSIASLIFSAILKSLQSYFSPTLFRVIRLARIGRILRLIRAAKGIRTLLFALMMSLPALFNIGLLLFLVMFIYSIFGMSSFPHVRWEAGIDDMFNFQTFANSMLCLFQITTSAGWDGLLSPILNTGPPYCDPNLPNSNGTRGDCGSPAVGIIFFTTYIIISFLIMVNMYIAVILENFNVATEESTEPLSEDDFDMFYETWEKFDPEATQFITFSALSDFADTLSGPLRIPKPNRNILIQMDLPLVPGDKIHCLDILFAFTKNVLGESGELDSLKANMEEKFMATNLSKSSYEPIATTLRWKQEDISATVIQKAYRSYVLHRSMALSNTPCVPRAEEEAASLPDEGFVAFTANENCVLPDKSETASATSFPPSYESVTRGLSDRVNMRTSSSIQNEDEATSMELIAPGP
row,SMILES,pIC50
1,"COc1cc(Cl)ccc1Oc1ncc(C(F)(F)F)cc1C(=O)Nc1cccc(S(C)(=O)=O)c1 [Example 26, 2-(4-chloro-2-methoxy-phenoxy)-N-(3-methylsulfonylphenyl)-5-(trifluoromethyl)pyridine-3-carboxamide]",> 6.30
2,"CC(C)Oc1ccccc1Oc1ncc(C(F)(F)F)cc1C(=O)Nc1cccc(S(C)(=O)=O)c1 [Example 27, 2-(2-isopropoxyphenoxy)-N-(3-methylsulfonylphenyl)-5-(trifluoromethyl)pyridine-3-carboxamide]",< 6.00
3,"Cc1cccc(C)c1Oc1ncc(C(F)(F)F)cc1C(=O)Nc1cccc(S(C)(=O)=O)c1 [Example 33, 2-(2,6-dimethylphenoxy)-N-(3-methylsulfonylphenyl)-5-(trifluoromethyl)pyridine-3-carboxamide]",< 6.00
4,"COc1cc(F)ccc1Oc1ncc(C(F)(F)F)cc1C(=O)Nc1cccc(S(C)(=O)=O)c1 [Example 35, 2-(4-fluoro-2-methoxy-phenoxy)-N-(3-methylsulfonyl-phenyl)-5-(trifluoromethyl)pyridine-3-carboxamide]",> 6.30
5,"CS(=O)(=O)c1cccc(NC(=O)c2cc(C(F)(F)F)cnc2Oc2ccc(F)cc2Cl)c1 [Example 36, 2-(2-chloro-4-fluoro-phenoxy)-N-(3-methylsulfonyl-phenyl)-5-(trifluoromethyl)pyridine-3-carboxamide]",> 6.30
6,"Cc1cc(OC(F)(F)F)ccc1Oc1ncc(C(F)(F)F)cc1C(=O)Nc1cccc(S(C)(=O)=O)c1 [Example 37, N-(3-methylsulfonyl-phenyl)-2-[2-methyl-4-(trifluoromethoxy)phenoxy]-5-(trifluoromethyl)pyridine-3-carboxamide]",> 6.30
7,"CS(=O)(=O)c1cccc(NC(=O)c2cc(C(F)(F)F)cnc2Oc2ccccc2)c1 [Example 41, N-(3-methylsulfonyl-phenyl)-2-phenoxy-5-(trifluoromethyl)pyridine-3-carboxamide]",< 6.00
8,"CS(=O)(=O)c1cccc(NC(=O)c2cc(C(F)(F)F)cnc2Oc2cccc(F)c2)c1 [Example 42, 2-(3-fluorophenoxy)-N-(3-methylsulfonyl-phenyl)-5-(trifluoromethyl)pyridine-3-carboxamide]",6.00 to 6.30
9,"CS(=O)(=O)c1cccc(NC(=O)c2cc(C(F)(F)F)cnc2Oc2cc(F)ccc2F)c1 [Example 43, 2-(2,5-difluorophenoxy)-N-(3-methylsulfonyl-phenyl)-5-(trifluoromethyl)pyridine-3-carboxamide]",6.00 to 6.30
10,"CS(=O)(=O)c1cccc(NC(=O)c2cc(C(F)(F)F)cnc2Oc2cc(F)cc(Cl)c2)c1 [Example 45, 2-(3-chloro-5-fluoro-phenoxy)-N-(3-methylsulfonyl-phenyl)-5-(trifluoromethyl)pyridine-3-carboxamide]",< 6.00
11,"CC(C)c1ccccc1Oc1ncc(C(F)(F)F)cc1C(=O)Nc1cccc(S(C)(=O)=O)c1 [Example 46, 2-(2-isopropylphenoxy)-N-(3-methylsulfonyl-phenyl)-5-(trifluoromethyl)pyridine-3-carboxamide]",> 6.30
12,"CS(=O)(=O)c1cccc(NC(=O)c2cc(C(F)(F)F)cnc2Oc2ccc(F)c(F)c2)c1 [Example 47, 2-(3,4-difluorophenoxy)-N-(3-methylsulfonyl-phenyl)-5-(trifluoromethyl)pyridine-3-carboxamide]",> 6.30
13,"CS(=O)(=O)c1cccc(NC(=O)c2cc(C(F)(F)F)cnc2Oc2ccc(F)cc2F)c1 [Example 48, 2-(2,4-difluorophenoxy)-N-(3-methylsulfonyl-phenyl)-5-(trifluoromethyl)pyridine-3-carboxamide]",> 6.30
14,"CS(=O)(=O)c1cccc(NC(=O)c2cc(C(F)(F)F)cnc2Oc2cc(F)cc(F)c2)c1 [Example 49, 2-(3,5-difluorophenoxy)-N-(3-methylsulfonyl-phenyl)-5-(trifluoromethyl)pyridine-3-carboxamide]",< 6.00
15,"CN(C)c1ccccc1Oc1ncc(C(F)(F)F)cc1C(=O)Nc1cccc(S(C)(=O)=O)c1 [Example 52, 2-[2-(dimethylamino)phenoxy]-N-(3-methylsulfonyl-phenyl)-5-(trifluoromethyl)pyridine-3-carboxamide]",6.00 to 6.30
16,"COc1ccc(Oc2ncc(C(F)(F)F)cc2C(=O)Nc2cccc(S(C)(=O)=O)c2)c(OC)c1 [Example 54, 2-(2,4-dimethoxyphenoxy)-N-(3-methylsulfonyl-phenyl)-5-(trifluoromethyl)pyridine-3-carboxamide]",> 6.30
17,"CS(=O)(=O)c1cccc(NC(=O)c2cc(C(F)(F)F)cnc2Oc2cc(F)c(F)c(F)c2)c1 [Example 55, N-(3-methylsulfonyl-phenyl)-5-(trifluoromethyl)-2-(3,4,5-trifluorophenoxy)pyridine-3-carboxamide]",6.00 to 6.30
18,"CS(=O)(=O)c1cccc(NC(=O)c2cc(C(F)(F)F)cnc2Oc2cc(Cl)cc(Cl)c2)c1 [Example 56, 2-(3,5-dichlorophenoxy)-N-(3-methylsulfonyl-phenyl)-5-(trifluoromethyl)pyridine-3-carboxamide]",< 6.00

# Further lines, results first:
row,pIC50,SMILES
1,< 6.00,"CS(=O)(=O)c1cccc(NC(=O)c2cc(C(F)(F)F)cnc2Oc2ccc(F)cc2)c1 [Example 34, 2-(4-fluorophenoxy)-N-(3-methylsulfonyl-phenyl)-5-(trifluoromethyl)pyridine-3-carboxamide]"
2,> 6.30,"CS(=O)(=O)c1cccc(NC(=O)c2cc(C(F)(F)F)cnc2Oc2ccc(OC(F)(F)F)cc2)c1 [Example 38, N-(3-methylsulfonyl-phenyl)-2-[4-(trifluoromethoxy)phenoxy]-5-(trifluoromethyl)pyridine-3-carboxamide]"
3,> 6.30,"CS(=O)(=O)c1cccc(NC(=O)c2cc(C(F)(F)F)cnc2Oc2ccc(OC(F)F)cc2)c1 [Example 39, 2-[4-(difluoromethoxy)phenoxy]-N-(3-methylsulfonyl-phenyl)-5-(trifluoromethyl)pyridine-3-carboxamide]"
4,> 6.30,"CS(=O)(=O)c1cccc(NC(=O)c2cc(C(F)(F)F)cnc2Oc2ccc(OC(F)(F)F)c(F)c2)c1 [Example 40, 2-[3-fluoro-4-(trifluoromethoxy)phenoxy]-N-(3-methylsulfonyl-phenyl)-5-(trifluoromethyl)pyridine-3-carboxamide]"
5,< 6.00,"Cc1ccc(Oc2ncc(C(F)(F)F)cc2C(=O)Nc2cccc(S(C)(=O)=O)c2)cc1 [Example 44, 2-(4-methylphenoxy)-N-(3-methylsulfonyl-phenyl)-5-(trifluoromethyl)pyridine-3-carboxamide]"
6,> 6.30,"CS(=O)(=O)c1cccc(NC(=O)c2cc(C(F)(F)F)cnc2Oc2ccc(OCC(F)(F)F)cc2)c1 [Example 50, N-(3-methylsulfonyl-phenyl)-2-[4-(2,2,2-trifluoroethoxy)phenoxy]-5-(trifluoromethyl)pyridine-3-carboxamide]"
7,> 6.30,"CS(=O)(=O)c1cccc(NC(=O)c2cc(C(F)(F)F)cnc2Oc2ccc(SC(F)(F)F)cc2)c1 [Example 51, N-(3-methylsulfonyl-phenyl)-5-(trifluoromethyl)-2-[4-(trifluoromethyl-sulfanyl)phenoxy]pyridine-3-carboxamide]"
8,> 6.30,"CS(=O)(=O)c1cccc(NC(=O)c2cc(C(F)(F)F)cnc2Oc2ccccc2C(F)(F)F)c1 [Example 53, N-(3-methylsulfonyl-phenyl)-5-(trifluoromethyl)-2-[2-(trifluoromethyl)phenoxy]pyridine-3-carboxamide]"
9,< 6.00,"CS(=O)(=O)c1cccc(NC(=O)c2cc(C(F)(F)F)cnc2Oc2ccc(C(F)(F)F)nc2)c1 [Example 57, N-(3-methylsulfonyl-phenyl)-5-(trifluoromethyl)-2-[[6-(trifluoromethyl)-3-pyridyl]oxy]pyridine-3-carboxamide]"

# Source: patent US12234221B2, “Pyridine carboxamide compounds for inhibiting NAV1.8” (Lieber Institute, Inc., priority 2018, dated 2025)
